Results reported in ChEMBL document CHEMBL3507680, “University of Dundee, Gates Library screen for HepG2 cell viability”.

Assay: Human HepG2 cell viability assay in 384 well format
Type: toxicity, cell-based
Parameters: dose 125 nL, time 70.5 hour; cytotoxicity at 70.5 h: concentration not given beside the values
Conditions: HepG2 cells, read-out: Inhibition

| Structure (SMILES) | cytotoxicity at 70.5 h |
| --- | --- |
| CCC(C)(CC(=O)OC)NC(=O)c1ccc(C(C)=O)cc1 (centres undefined) | 23.7% |
| Cc1cc(CC(=O)NCC(O)COc2ccc(F)c(F)c2)no1 (centres undefined) | -12% |
| CCC(C)(CC(=O)OC)NC(=O)c1ccc2[nH]ccc2c1 (centres undefined) | -10.1% |
| CCC(C)(CC(=O)OC)NC(=O)c1cccc(F)c1F (centres undefined) | -14.7% |
| CC(=O)NCCCSC1CCN(c2ccccc2F)C1=O (centres undefined) | -11.5% |
| CC(=O)NCCCSC1CCCN(c2ccccc2Cl)C1=O (centres undefined) | -15.3% |
| Cn1cc(C(=O)CC2CCCN2C(=O)c2ccn3ccnc3c2)cn1 (centres undefined) | -10.3% |
| CCc1nc(C2CCCN(C(=O)c3c[nH]c(C(C)C)n3)C2)no1 (centres undefined) | -10.9% |
| COc1cccc(CCCN2CCC(N(C)S(C)(=O)=O)CC2)c1 | 4.63% |
| Cc1c(NCc2ccccc2C#N)cccc1S(=O)(=O)NC1CC1 | 5.79% |
| O=C(CN1CCS(=O)(=O)CC1)NC1CCOc2ccccc21 (centres undefined) | -3.04% |
| CS(=O)(=O)Nc1cccc(CNC(=O)CCc2ccsc2)c1 | -1.95% |
| O=C(Cn1cc(Cl)cn1)Nc1ccc2c(c1)OCCCO2 | 25.9% |
| CCNC(=O)C1CCCN(c2cccc(C(F)(F)F)n2)C1 (centres undefined) | 21.5% |
| CC(C(=O)N1CCN(c2ccc(F)cc2)CC1)n1ccnc1 (centres undefined) | -3.73% |
| O=C(CCn1ccc2ccccc21)N1CCC(Nc2cccnc2)CC1 | -1.56% |
| COC1CCN(C(=O)Cn2nc(C)cc2C)CC1 | -3.13% |
| O=C(NCC1CC1)C1CCCN(c2cccc(C(F)(F)F)n2)C1 (centres undefined) | 19.6% |
| Cc1nc(CCNc2ccc(-c3nc(C)c(C)c(=O)[nH]3)cn2)cs1 | -1.37% |
| CCCc1cc(C(=O)NCCCC(=O)N2Cc3ccccc3C2)[nH]n1 | -6.02% |
| CS(=O)(=O)Cc1ccccc1NCc1cc(Cl)ccc1Cl | 3.86% |
| COCC1CCN(CCCc2cccc(OC)c2)CC1 | 30.7% |
| Clc1cccc(N2CCC(NCc3ncc[nH]3)C2)c1 (centres undefined) | 0.765% |
| CCc1cc(CNC(=O)N(C2CC2)C(C)c2ccco2)on1 (centres undefined) | 23.3% |

| Structure (SMILES) | cytotoxicity at 70.5 h |
| --- | --- |
| Cn1c(C2CC2)nc2cc(NC(=O)C3CC=CC3)ccc21 | -5.03% |
| Cc1cc(NC(=O)NCCc2cscn2)nn1C | -4.59% |
| CC(C)c1n[nH]c(C2CN(Cc3ccno3)CCO2)n1 (centres undefined) | 0.21% |
| CCc1cc(CNC(=O)N(C2CC2)C(C)c2ccco2)[nH]n1 (centres undefined) | -5.28% |
| O=C(CCn1ccc2ccccc21)N1CCN(Cc2cccnc2)CC1 | 17.7% |
| CCCC(=O)N(C)c1cccc2ncccc12 | -1.87% |
| Cc1ccnc(C(NC(=O)c2ccc(O)nc2C)C2CC2)n1 (centres undefined) | 16.3% |
| NC(=O)CN(CC1CCOC1)C1CC1 (centres undefined) | -2.08% |
| CN(c1ccc(CNC(=O)c2ccc(O)nc2)cc1)C1CCCCC1 | 0.503% |
| CN(CC(=O)Nc1ccccc1C(=O)NC1CC1)Cc1ccccc1Cl | 0.515% |
| COc1cc(C2(C(=O)NC3CCN(CC4CC4)CC3)CC2)ccc1C | -6% |
| O=C(CCc1ccc2c(c1)OCO2)Nc1cccnc1-n1cncn1 | -2.15% |
| Cn1ccc(C(=O)N2CCOC(c3ccccc3)C2)cc1=O (centres undefined) | -7.42% |
| N#Cc1cccnc1N1CCCN(C(=O)CCc2cccs2)CC1 | -4.16% |
| COc1cc(C2(C(=O)NC3CCN(C4CC4)CC3)CC2)ccc1C | -4.2% |
| Cn1ccc2c(C(=O)NCCCS(C)(=O)=O)cccc21 | 5.4% |
| O=C(Nc1ccc(Cl)cn1)C1CCN(CCc2ccccn2)CC1 | -1.68% |
| CC(C)(C)NC(=O)Cn1nc(C2CC2)cc(C(F)(F)F)c1=O | -1.18% |
| O=C(Nc1ccc(Cl)cn1)C1CCCN(CCc2ccccn2)C1 (centres undefined) | 14.5% |
| CN1CCCN(c2nc(C3CC3)ns2)CC1 | -3.92% |
| Cc1nc(C)n(CC2CN(CCc3ccccn3)CCO2)n1 (centres undefined) | -7.39% |
| Cc1ncncc1C(=O)N1CCCN(Cc2cnn(C(C)C)c2)CC1 | 8.58% |
| COc1c(C2CCCN2C(=O)c2cnn(C)c2C2CC2)c(C)nn1C (centres undefined) | -2.81% |
| COc1c(C2CCCN2C(=O)c2sccc2C#N)c(C)nn1C (centres undefined) | -5.44% |

| Structure (SMILES) | cytotoxicity at 70.5 h |
| --- | --- |
| O=C(NCCCOCC1CCCO1)c1cccnc1N1CCOCC1 (centres undefined) | 36.7% |
| CC(C)CCC(=O)N1CCCC1c1nnc2n1CCCCC2 (centres undefined) | -6.64% |
| CCN(CC)C(CNS(=O)(=O)c1ccc(C(C)=O)cc1)c1ccco1 (centres undefined) | -3.55% |
| CCN(CC)C(CNC(=O)c1ccc(S(=O)(=O)NC)cc1)c1ccco1 (centres undefined) | 0.103% |
| NC(=O)c1ccc(CN2CCC(N3CCCCC3)CC2)cc1 | -1.57% |
| Cc1cc(C)n(CC2CN(Cc3ccc(C(N)=O)cc3)CCO2)n1 (centres undefined) | -4.76% |
| CCCC1CCCN(C(=O)Nc2ccc(F)c(C(N)=O)c2)CC1 (centres undefined) | -1.9% |
| c1nc(N2CCOC(Cn3cncn3)C2)c2sccc2n1 (centres undefined) | 29% |
| CN1CCC(NC(=O)CC2CN(Cc3ccccc3)CCO2)CC1 (centres undefined) | -5.42% |
| Cc1cnn(CC2CCCCN2C(=O)Cn2nc(C)c(Cl)c2C)c1 (centres undefined) | -4.01% |
| CNc1cc(N2CCCC2CNCc2cccc(C(N)=O)c2)ncn1 (centres undefined) | -2.53% |
| Cc1noc(Cl)c1CC(=O)N1CCCC1Cn1cccn1 (centres undefined) | 2.85% |
| Cc1cc(C)n(C2CCCN(C(=O)c3cccc(F)c3F)C2)n1 (centres undefined) | 38.7% |
| CNc1cc(N2CCCC2CNCc2cccnc2)ncn1 (centres undefined) | 4.98% |
| Cc1cc(C)n(C2CCCN(C(=O)c3ccc(N(C)C)nn3)C2)n1 (centres undefined) | -4.23% |
| CNc1cc(N2CCCC2CNCc2cccs2)ncn1 (centres undefined) | -1.51% |
| CS(=O)(=O)CCn1ccc(NC(=O)Cc2cccc(Cl)c2)n1 | -0.645% |
| O=C(CC1CN(Cc2ccccc2)CCO1)NC1CCSCC1 (centres undefined) | 3.03% |
| Cc1nc(C)n(C2CCCN(C(=O)Cc3ccc4c(c3)CCC4)C2)n1 (centres undefined) | -3.72% |
| CC(C)OCCCNC(=O)c1cccnc1N1CCOCC1 | 39.8% |
| CNc1cc(N2CCCC2CNCc2ccco2)ncn1 (centres undefined) | -1.02% |
| Cc1cc(C)n(CC2CN(Cc3cccnc3)CCO2)n1 (centres undefined) | 3.35% |
| CCn1ccnc1CN1CCN(CCc2ccccn2)CC1C (centres undefined) | -3.46% |
| Cc1nn(C)c(C)c1CC(=O)N1CCCC1Cn1cccn1 (centres undefined) | -5% |

| Structure (SMILES) | cytotoxicity at 70.5 h |
| --- | --- |
| Cc1nc(C)n(C2CCCN(C(=O)CCc3cn(C)nc3C)C2)n1 (centres undefined) | -0.365% |
| Cc1cc(C)n(C2CCCN(C(=O)c3ccc(F)c(F)c3)C2)n1 (centres undefined) | 9.19% |
| CSCCC(=O)N1CCCC1c1nnc2n1CCCCC2 (centres undefined) | -3.4% |
| O=C(CN1CCCC(CO)C1)NCCOc1cccc(Cl)c1 (centres undefined) | 27.5% |
| O=C(NCCSCc1ccc(Br)s1)C1CCCN(C(=O)c2cccs2)C1 (centres undefined) | -8.75% |
| CCCc1nc(C)c(C(=O)NCC2CCN(C3CC3)C2)s1 (centres undefined) | 23.6% |
| Cc1sc2nc(C(F)(F)F)nc(N3CCC(NS(C)(=O)=O)CC3)c2c1C | -5.38% |
| CC(=O)N1CCN(c2nc(C(F)(F)F)nc3sc(C)c(C)c23)CC1 | -9.75% |
| O=C(c1c[nH]c(=O)[nH]1)N1CCc2ccccc21 | -4.03% |
| CC(NCc1cccnc1)c1cc2c(cc1Br)OCCO2 (centres undefined) | -6.12% |
| Cc1ccc(CN2CCOCC2)cc1NC(=O)c1ccsc1 | -9.12% |
| N#Cc1cccc(C(=O)NS(=O)(=O)c2ccc(C#N)c(Cl)c2)c1 | 27.3% |
| COc1ccsc1C(=O)Nc1cc(CN2CCOCC2)ccc1C | 0.784% |
| Clc1ccc(NCc2nnc(C3CC3)o2)cc1Cl | 24.8% |
| CC(C)(C)c1noc(CNc2ccccc2N2CCC(O)CC2)n1 | -8.28% |
| O=C(NS(=O)(=O)c1ccc(F)cc1)C1CCOc2ccccc21 (centres undefined) | -3.97% |
| FC(F)(F)Sc1ccc(NCc2nnc(C3CC3)o2)cc1 | 1.88% |
| COc1ccnc(NC(=O)c2ccsc2)c1 | -10.1% |
| COCCCN(Cc1ccncc1)C(=O)CSc1ccc(F)cc1 | -5.19% |
| CCOC(C)c1noc(CN2CCN(CC3CCCC3)CC2)n1 (centres undefined) | -6.48% |
| CCOC(C)c1noc(CN2CCN(c3nnc(C)s3)CC2)n1 (centres undefined) | -4.45% |
| O=C(O)[C@H]1CCCN1CCOc1cccc(Cl)c1 | -5.33% |
| CCOC(C)c1noc(CN2CCNCC2)n1 (centres undefined) | 13.6% |
| COC(C)c1noc(CN2CCCNCC2)n1 (centres undefined) | -10% |

| Structure (SMILES) | cytotoxicity at 70.5 h |
| --- | --- |
| O=C(Cc1cccc(Cl)c1)Nc1cnccc1SCCCO | -6.16% |
| CC(NCCN1CCN(C(=O)C2CCCC2)CC1)c1cnn(C)c1 (centres undefined) | 5.6% |
| Cc1ccc(C)c(CC(=O)Nc2cnccc2SCCCO)c1 | 23.5% |
| C=C(C)CN(CC)S(=O)(=O)c1ccccc1C#N | -7.47% |
| CCN(CC(=O)NC)C(=O)c1cc(-c2cccc(Cl)c2)no1 | -2.85% |
| Cc1cccc(N(C)Cc2nc3c(cnn3C)c(=O)[nH]2)c1C | -10% |
| CCN(Cc1nc2c(cnn2C)c(=O)[nH]1)c1ccccc1C | -11.2% |
| O=C(c1ccc(=O)[nH]n1)N1CCCC1CCc1ccccc1 (centres undefined) | -11.9% |
| CCOC(=O)c1ccc(Nc2ccc(OC)c(N3CCCC3=O)c2)nc1 | -14.4% |
| CCN(Cc1nc2c(cnn2C)c(=O)[nH]1)c1cc(C)ccc1C | -15.9% |
| O=C(C1CCCN1c1ncnc2ccsc12)N1CCSCC1 (centres undefined) | -9.24% |
| Cn1cnc2c1CCN(Cc1nc(-c3ccco3)no1)C2 | 8.47% |
| O=C(c1ccc(-n2ccnc2)nn1)N1CCCCC1Cn1cccn1 (centres undefined) | -5.22% |
| CC(CO)N1CCN(C(=O)OC(C)(C)C)CC1 (centres undefined) | -6.8% |
| Cc1cccc(-c2nc(CN3CCn4c(nnc4C4CC4)C3)no2)c1 | -12.1% |
| COc1ccc(Nc2ncccc2C#N)cc1N1CCCC1=O | 5.71% |
| Cc1nc(CN2CCCN(Cc3nc4c(F)cccc4[nH]3)CC2)no1 | -10.4% |
| Cc1nc(C2CCCN2CCCn2c(=O)oc3ccccc32)no1 (centres undefined) | 19.1% |
| CC(C)=CCN1CCN(C(=O)C2CC2)CC1 | 2.37% |
| O=C(Nc1cccnc1-n1cccn1)N1CCCC(N2CCCC2)C1 (centres undefined) | -4.62% |
| CN(C)c1ccc(CNCc2ccc(N3CCOCC3)cc2)cn1 | -9.01% |
| Cc1cc(N(C)CCOc2ccccc2F)nc(N)n1 | -2.43% |
| COc1ccccc1OCCN(C)c1cc(C)nc(N)n1 | 18.7% |
